# Marks after values point to notes of the source that are not given here.
# Columns and labels:
# Assay type in all cases: in vivo, female Crl:NMRI mice
# sebaceous glands [1] = assay: Topical LCF369 on sebaceous glands of NMRI mice: clinical service form candidates (0.5% formulations)
# Method: (§1) LCF369 is prepared either in a solution of ethanol/propylene glycol (3/7, v/v) or in topical formulations at 1.0, 0.5 or 0.1% for testing in female Crl:NMRI mice. In general, shaved application sites of approximately 2.5 cm^2 on the back of mice are treated twice daily (once on weekends or at study termination) with 50 μl of the LCF369 preparations. To prevent the animals from potential oral uptake of the epicutaneously applied compounds, they are fitted with ruffs and housed individually. After the last application, the animals are euthanised; the treated sites dissected and prepared for histological sections. […] The entire sections of approximately 10 mm length are evaluated microscopically (200×) for sebaceous glands. The mean size and mean number (per mm^2 dermis) of sectioned alveolar units of the sebaceous glands are determined in a coded fashion with an image analyzer (Axiovision, Zeiss). For statistical analysis, morphometric data are analyzed with a T-test or Mann-Whitney rank sum test. […]
# Three different formulations containing 0.5% LCF369 are tested; i) emulsion gel with the penetration enhancer Sepa 09 (batch 92.66.01-ra), ii) emulsion gel without a penetration enhancer (batch 9450-05-Ra), and iii) a formulation containing particulate compound (“follicular targeting formulation”). They are evaluated after 9 or 13 applications.
# sebaceous glands [2] = assay: Topical LCF369 on sebaceous glands of NMRI mice: minimal treatment period; conditions: for mean size decrease: 1.0% LCF369 twice daily, vs vehicle
# Method: (§2) LCF369 is prepared either in a solution of ethanol/propylene glycol (3/7, v/v) or in topical formulations at 1.0, 0.5 or 0.1% for testing in female Crl:NMRI mice. In general, shaved application sites of approximately 2.5 cm^2 on the back of mice are treated twice daily (once on weekends or at study termination) with 50 μl of the LCF369 preparations. To prevent the animals from potential oral uptake of the epicutaneously applied compounds, they are fitted with ruffs and housed individually. After the last application, the animals are euthanised; the treated sites dissected and prepared for histological sections. Hematoxilin/eosin (HE)-stained 3 μm-thick sections are prepared from formalin-fixed, paraffin-embedded tissue. From each animal, one HE-stained section per site is histomorphometrically examined. The entire sections of approximately 10 mm length are evaluated microscopically (200×) for sebaceous glands. The mean size and mean number (per mm^2 dermis) of sectioned alveolar units of the sebaceous glands are determined in a coded fashion with an image analyzer (Axiovision, Zeiss). For statistical analysis, morphometric data are analyzed with a T-test or Mann-Whitney rank sum test. Frozen tissue sections (5 μm) are used for oil red O (lipid) staining.
# Groups of 4 mice are treated with 1.0% LCF369 twice daily for 2, 4, 6 and 8 days (i.e. up to 16 applications). Control groups remain untreated or are treated with the vehicle alone twice daily for 8 days.
# sebaceous glands [3] = assay: Topical LCF369 on sebaceous glands of NMRI mice: minimal effective concentration; conditions: LCF369 1.0% (w/v) twice daily, 7 days, mean (SD), 6 animals
# Method: as §2
# LCF369 is tested at 1.0%, 0.5% and 0.1%, groups of 6 mice are treated twice daily for 7 consecutive days. […]
# sebaceous glands [4] = assay: Topical LCF369 on sebaceous glands of NMRI mice: evaluation of efficacy
# Method: as §2
# Groups of 5 mice are treated with 50 μl of 1% or 0.1% LCF369 twice daily (except on weekends, when the animals are treated once daily and on study termination) for 8 days (i.e. 14 applications in total). Four control animals are treated similarly with the vehicle alone. In life, the animals are observed for clinical signs and macroscopic changes of the application sites. One day after the last application, an evaluation is performed. In animals treated with 1.0% LCF369, untreated skin samples distant from the treated sites are also collected in order to assess systemic activity due to percutaneous absorption of LCF369.
# sebaceous glands [5] = assay: Topical LCF369 on sebaceous glands of NMRI mice: duration of action
# Method: as §1, with “sections. Hematoxilin/eosin (HE)-stained 3 μm-thick sections are prepared from formalin-fixed, paraffin-embedded tissue.” for “sections.”
# A 7-day b.i.d. (twice daily) treatment schedule (except on week ends when the animals were treated once daily) with 1.0% LCF369 is applied to groups of 7 mice which are evaluated on days 8 (one day after the 14th application), 24 and 41. […]
# [6] = LCF369-treated vs vehicle-treated skin
smiles,measurement,setting,value
"O=C(NCCC1CC1)c1ccc(N2CCN(C(=O)c3cc(F)ccc3C(F)(F)F)CC2)nn1 [LCF369, 6-[4-(5-Fluoro-2-trifluoromethylbenzoyl)piperazin-1-yl]pyridazine-3-carboxylic acid (2-cyclopropylethyl)amide]",hyper/parakeratosis and acanthosis in skin sections,sebaceous glands [1]; 0.5% LCF369 formulation containing SEPA-9 vs placebo-treated (vehicle-treated) samples,more pronounced
same,effect on sebaceous glands,sebaceous glands [1]; 0.5% LCF369 formulation containing penetration enhancer SEPA-9,significant atrophy of sebaceous glands
same,mean size decrease,sebaceous glands [2]; after 4 days,35%
same,mean size decrease,sebaceous glands [2]; after 6 days,35%
same,mean size decrease,sebaceous glands [2]; after 8 days,72%
same,Maximum reduction in sizes and numbers of sebaceous glands,"sebaceous glands [2]; topical application, compared to untreated skin",up to 75%
same,Number of sebaceous glandular units,sebaceous glands [3],10.1 (4.0)*** per mm^2 dermis
same,atrophogenic effects,"sebaceous glands [4]; 0.1% LCF369, 8 days",little or no atrophogenic effects
same,reduction of sebaceous glands in sizes (fold),"sebaceous glands [4]; 1.0% LCF369, 8 days, p<0.01",about 1.9 fold
same,differences in numbers and sizes of sebaceous glands at sites distant from the treatments,"sebaceous glands [4]; 1.0% LCF369, distant sites",no significant differences
same,"histochemical (HE) staining of treated skin, FIG. 2B",sebaceous glands [4]; [6],fewer and smaller (atrophic) sebaceous glands
same,"oil red O (lipid) staining of treated skin, FIG. 3B",sebaceous glands [4]; [6],significantly reduced lipids associated with hair shafts
same,atrophogenic effect from LCF369 treatment,"sebaceous glands [5]; 1% LCF369, on day 24",substantially reduced
same,atrophogenic effect from LCF369 treatment,"sebaceous glands [5]; 1% LCF369, on day 41",almost completely absent
